According to US9649379B2, “Pharmaceutical composition and pharmaceutical kit for the treatment of hepatocellular carcinoma” (ALMA MATER STUDIORUM—UNIVERSITA' DI BOLOGNA, priority 2007, dated 2017):

System: Cleaved PARP
Assay: Apoptosis analysis: Western blot of cleaved PARP after doxorubicin
Assay type: cell-based, human
Conditions: doxorubicin 100 μg/ml, infected HepG2 cells
Experimental: Stably infected cell populations of HepG2 cells were seeded into 6-well dishes and allowed to attach for 24 hours, washed and cultured in fresh complete medium with 100 ug/ml doxorubicin (Sigma) for 1 h, 3 h, 6 h, 12 h, 18 h and 24 h. Doxorubicin incorporation was detected by FACS counting of 10,000 events.
Cultured cells were dissolved in lysis buffer containing 10 mM Tris-HCl pH 7.4, 2.5 mM MgCl2, 1% TritonX 100, 1 mM DTT, 0.1 mM phenylmethylsulfonyl fluoride (PMSF), 1 mM Na3VO4, 1 mM NaF and protease inhibitors (Sigma Chemical Company, St. Louis, Mo.). The lysate was centrifuged at 4° C., 15,000×g, for 15 min and the supernatant assayed for protein concentration by Bio-Rad protein assay (Bio-Rad). […]
After repeated washing in PBS containing 0.1% Tween 20 (PBST), membranes were incubated with anti-mouse or anti-rabbit HRP-conjugated secondary antibodies using the EnVision dextran polymer visualization system (Dako). […] Digital images of autoradiographs were acquired with a Fluor-S MultiImager scanner (BioRad) and signals were quantitated with Quantity-one densitometric software (BioRad, Hercules, Calif.) in absorbance units after light calibration with a reference autoradiograph.

COc1cccc2c1C(=O)c1c(O)c3c(c(O)c1C2=O)C[C@@](O)(C(=O)CO)C[C@@H]3O[C@H]1C[C@H](N)[C@H](O)[C@H](C)O1 [Doxorubicin, doxorubicin]
cleavage of PARP: caused cleavage of PARP
